The target in data set [1] is T1, Complement factor B (Homo sapiens, UniProt P00751). The data set is described as follows: Inhibition of human complement factor B treated for 5 mins before addition of substrate Ac-SHLGLAR-pNA at pH 9.5 by chromogenic assay.
For data set [2], the target named is T1, Complement factor B. The data set is described as follows: Inhibition of human C3/C5 convertase assessed as inhibition of C3 cleavage.
Data set [3] concerns the target T1, Complement factor B. As to the kind of experiment: Inhibition of human C3 convertase assessed as inhibition of C3a and C3b fragment production at pH 7.4 after 30 mins by SDS-PAGE using 7% (w/v) polyacrylamide gel.
Data set [4] in a line: Inhibition of human alternative complement system-mediated membrane attack complex formation by ELISA. A general note: ELISA stands for enzyme-linked immunosorbent assay.
A short description of data set [5]: Inhibition of alternative complement system-mediated hemolysis of rabbit erythrocytes assessed as haemoglobin release after 30 mins by UV/vis spectrophotometry. Set-up: species or system Oryctolagus cuniculus.
The target of data set [6] is T1, Complement factor B. The data set is described as follows: Inhibition of human C3 convertase assessed as inhibition of C3a and C3b fragment production at pH 7.4 after 30 mins by SDS-PAGE.
Data set [7] can be described thus: Metabolic stability in human serum assessed as compound remaining at 1 mM after 3 hrs by LC-MS analysis. It is filed as ADME, cell-free. To be noted: read-out: Stability.
Data set [8] deals with T1, Complement factor B. The data set is described as follows: Inhibition of human complement factor B at pH 9.5 by chromogenic assay.
Data set [9] can be described thus: Inhibition of cobra C3/C5 convertase assessed as inhibition of C3a and C5a fragment formation. Further details: species or system Naja naja.
The nature of data set [10]: Solubility in water. The format is physicochemical. To be noted: buffer.

Peptide text beside a SMILES is read from it.

This is an account of results in ChEMBL document CHEMBL1156245, “Structure-activity relationships for substrate-based inhibitors of human complement factor B” (J Med Chem, 2009).

The IC50 is the point on the concentration scale where inhibition reaches its midpoint.

T1 sequence (P00751 whole entry): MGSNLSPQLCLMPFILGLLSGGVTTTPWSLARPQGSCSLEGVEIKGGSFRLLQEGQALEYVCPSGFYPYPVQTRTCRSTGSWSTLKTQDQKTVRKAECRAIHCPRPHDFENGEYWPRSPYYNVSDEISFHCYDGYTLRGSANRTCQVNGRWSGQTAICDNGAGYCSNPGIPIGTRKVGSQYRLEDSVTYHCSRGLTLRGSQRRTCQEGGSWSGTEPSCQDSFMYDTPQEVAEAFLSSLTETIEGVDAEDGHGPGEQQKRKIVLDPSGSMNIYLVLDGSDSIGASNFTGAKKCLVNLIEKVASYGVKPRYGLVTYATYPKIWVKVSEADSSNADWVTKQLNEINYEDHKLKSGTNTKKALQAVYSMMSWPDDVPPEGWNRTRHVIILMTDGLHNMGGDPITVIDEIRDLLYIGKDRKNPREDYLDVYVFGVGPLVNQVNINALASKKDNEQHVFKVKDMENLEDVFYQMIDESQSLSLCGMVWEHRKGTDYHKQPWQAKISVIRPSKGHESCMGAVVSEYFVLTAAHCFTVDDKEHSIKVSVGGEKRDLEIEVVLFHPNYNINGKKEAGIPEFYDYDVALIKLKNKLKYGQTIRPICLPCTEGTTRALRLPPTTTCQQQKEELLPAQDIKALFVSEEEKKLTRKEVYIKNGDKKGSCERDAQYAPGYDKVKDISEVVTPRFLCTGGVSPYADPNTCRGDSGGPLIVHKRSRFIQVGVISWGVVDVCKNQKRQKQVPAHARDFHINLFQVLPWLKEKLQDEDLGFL

`CC(=O)N[C@@H](CC(C)C)C(=O)N[C@@H](CC(C)C)C(=O)N[C@@H](C)C(=O)N[C@@H](CCCN=C(N)N)C(=O)O` (Ac-LLAR-OH) returned an IC50 at Complement factor B [1] of 12 µM.

Ac-HLLLAR-OH: inhibition on Complement factor B [1] was half-maximal at 3 µM (IC50).

Regarding `CC(C)C[C@H](NC(=O)[C@H](CCC1CCCCC1)NC(=O)[C@H](CC(C)C)NC(=O)[C@H](Cc1cnc[nH]1)NC(=O)[C@@H](N)CO)C(=O)N[C@@H](C)C(=O)N[C@@H](CCCN=C(N)N)C(=O)O` (HELM PEPTIDE1{S.H.L.[O=C([C@H](CCC1CCCCC1)N[*:1])[*:2]].L.A.R}$$$$V2.0), inhibition against Complement factor B [1] was half-maximal at 5 µM (IC50).

The molecule Ac-FHLGLAR-OH returned an IC50 on Complement factor B [1] of 23 µM.

In the case of `CC[C@H](C)[C@H](N)C(=O)N[C@H]1CSSC[C@@H](C(=O)N[C@H](C(N)=O)[C@@H](C)O)NC(=O)[C@H](CCCN=C(N)N)NC(=O)[C@H](Cc2cnc[nH]2)NC(=O)[C@H](Cc2cnc[nH]2)NC(=O)CNC(=O)[C@H](Cc2c[nH]c3ccccc23)NC(=O)[C@H](CC(=O)O)NC(=O)[C@H](CCC(N)=O)NC(=O)[C@H](C(C)C)NC(=O)[C@H](C(C)C)NC1=O` [COMPSTATIN], on Complement factor B [2], the IC50 came out at 12 µM.

On to Ac-RLLLAR-OH [listing 1 of 2 here], for which, at Complement factor B [3], the inhibition entry was “Dose-dependent effect”. The IC50 in data set [4] was 1 µM; in data set [5] it was 20.8 µM.

For `CC(=O)N[C@@H](CCCNC(=N)N)C(=O)N[C@@H](CC(C)C)C(=O)N[C@@H](CC(C)(C)C)C(=O)N[C@@H](CC(C)C)C(=O)N[C@@H](C)C(=O)N[C@@H](CCCNC(=N)N)C(=O)O` (HELM PEPTIDE1{[ac].R.L.[CC(C)(C)C[C@H](N[*:1])C(=O)[*:2]].L.A.R}$$$$V2.0), the IC50 against Complement factor B [1] was determined as 0.25 µM; at Complement factor B [6], 10 µM; in [4], 0.32 µM; in data set [5], 9.7 µM. For the same molecule, on Complement factor B [3], the inhibition entry is “Dose-dependent effect”.

In the case of `CC(=O)N[C@@H](Cc1ccc(F)cc1)C(=O)N[C@@H](Cc1cnc[nH]1)C(=O)N[C@@H](CC(C)C)C(=O)NCC(=O)N[C@@H](CC(C)C)C(=O)N[C@@H](C)C(=O)N[C@@H](CCCN=C(N)N)C(=O)O` (HELM PEPTIDE1{[ac].[O=C([C@H](Cc1ccc(F)cc1)N[*:1])[*:2]].H.L.G.L.A.R}$$$$V2.0), 13 µM corresponded to half-maximal inhibition at Complement factor B [1] (IC50).

Turning to Ac-LLLAR-OH, half-maximal inhibition against Complement factor B [1] (IC50) required 3 µM.

At Complement factor B [1], `CCCC[C@H](NC(=O)[C@H](Cc1cnc[nH]1)NC(=O)[C@H](CO)NC(C)=O)C(=O)N[C@@H](CC(C)C)C(=O)N[C@@H](CC(C)C)C(=O)N[C@@H](C)C(=O)N[C@@H](CCCNC(=N)N)C(=O)O` (HELM PEPTIDE1{[ac].S.H.[Nle].L.L.A.R}$$$$V2.0) showed an IC50 of 5 µM.

As for Ac-SHLGLAR-OH, the figures for the IC50 (on Complement factor B [1]; in data set [4]; in [5]) were 19 µM, 21.1 µM and 243 µM, respectively. Besides, the remaining at 3 h, 1000 µM in [7] stood at 80%.

Regarding `CC(=O)N[C@@H](CO)C(=O)N[C@@H](Cc1cnc[nH]1)C(=O)N[C@@H](CC(C)C)C(=O)NCC(=O)N[C@@H](CC(C)C)C(=O)N[C@@H](C)C(=O)N[C@@H](CCCN=C(N)N)C(=O)Nc1ccc([N+](=O)[O-])cc1` (HELM PEPTIDE1{[ac].S.H.L.G.L.A.R.[O=[N+]([O-])c1ccc(N[*:1])cc1]}$$$$V2.0), inhibition at Complement factor B [8] was half-maximal at 19 µM (IC50).

On to Ac-RLLLGR-OH, for which, at Complement factor B [1], the IC50 was found to be 7 µM.

Molecule Ac-SHLLLAR-OH returned an IC50 at Complement factor B [1] of 4 µM.

`N=C(N)Nc1ccc(C(=O)Oc2ccc3cc(C(=N)N)ccc3c2)cc1`: in [9], the IC50 is 4 µM.

With Ac-RLLLAR-OH [listing 2 of 2 here], the solubility entry in data set [10] is reported as “Soluble”. The half-maximal inhibitory concentration (IC50) on Complement factor B [1] was found to be 0.6 µM; at Complement factor B [6], 50 µM. Besides, in [7], the remaining at 3 h, 1000 µM was determined as 80%.
